The subject of experiment [1] is J82 bladder carcinoma cells. Put plainly: Antiproliferative assay (MTT reduction), J82 bladder carcinoma cells. The experiment is classed as cell-based, human. To be noted: Homo sapiens, 72 h; J82 bladder carcinoma; 3 days treatment, MTT reduction; mean ± SD; >100 µM considered inactive. The protocol: (§1) All human cell lines used in this work were purchased from the American Type Culture Collection (ATCC, Manasas, VA, USA). […] Promyelocytic leukemia HL-60 cells (CCL-240) were grown in suspension in RPM1 medium containing 1 mM sodium pyruvate and 2.0 g/L sodium bicarbonate. All media were supplemented with 10% heat-inactivated FBS, 100 IU/mL penicillin and 100 µg/mL streptomycin. Cells were grown in a humidified incubator with 5% CO2 in air at 37 °C. For the antiproliferative assay, adherent cells were plated at a density of 5 × 10^4 cells/mL and HL-60 cells at 30 × 10^4 cells/mL. Cells were seeded in 96-well plates (100 µL/well). One day after seeding, cells were treated with medium containing the compounds at concentrations ranging from 0 up to 100 µM during 3 days. The compounds were dissolved in DMSO (1% final concentration) and complete medium. Untreated cells (medium containing 1% DMSO) were used as 100% viability controls. […] Each concentration was tested in sextuplicate and experiments were repeated 2 times. Cell viability was determined by means of the MTT reduction assay at the end of the incubation with the products.

In experiment [2] the test system is HL-60 cells. The experiment is described as follows: Antiproliferative assay (MTT reduction), HL-60 promyelocytic leukemia cells. The format is cell-based, human. The following applies: Homo sapiens, 72 h; HL-60 promyelocytic leukemia; 3 days treatment, MTT reduction; mean ± SD; >100 µM considered inactive. The protocol: as §1
Experiment [3] has as its system SK-MES-1 lung cancer cells. The experiment is described as follows: Antiproliferative assay (MTT reduction), SK-MES-1 lung cancer cells. The experiment is classed as cell-based, human. The following applies: Homo sapiens, 72 h; SK-MES-1 lung cancer cells; 3 days treatment, MTT reduction; mean ± SD; >100 µM considered inactive. The protocol: as §1
In general terms: Formazan colour is commonly taken as a measure of viable cells.

The subject of experiment [4] is MRC-5 normal fibroblasts. The experiment is described as follows: Antiproliferative assay (MTT reduction), MRC-5 normal lung fibroblasts. The format is cell-based, human. To be noted: Homo sapiens, MRC5, 72 h; MRC-5 normal fibroblasts; 3 days treatment, MTT reduction; mean ± SD; >100 µM considered inactive. The protocol: as §1
Experiment [5] relates to AGS cells. The experiment is described as follows: Antiproliferative assay (MTT reduction), AGS gastric adenocarcinoma cells. The format is cell-based, human. The following applies: Homo sapiens, 72 h; AGS gastric adenocarcinoma; 3 days treatment, MTT reduction; mean ± SD; >100 µM considered inactive. As for the experimental part: (§2) The compounds 1–20 were assessed for antiproliferative effect towards human lung fibroblasts (MRC-5) and the following human tumor cell lines: gastric adenocarcinoma (AGS), lung cancer cells (SK-MES-1), bladder carcinoma (J82) and promyelocytic leukemia (HL-60).
(§3) All human cell lines used in this work were purchased from the American Type Culture Collection (ATCC, Manasas, VA, USA). Normal lung MRC-5 fibroblasts (CCL-171), SK-MES-1 lung cancer cells (HTB-58) and J82 bladder carcinoma cells (HTB-1) were grown as monolayers in minimum essential Eagle medium (MEM) with Earles’s salts, 2 mM L-glutamine and 1.5 g/L sodium bicarbonate. Gastric adenocarcinoma AGS cells (CRL-1739) were grown as monolayers in Ham F-12 medium containing 1 mM L-glutamine and 1.5 g/L sodium bicarbonate. Promyelocytic leukemia HL-60 cells (CCL-240) were grown in suspension in RPM1 medium containing 1 mM sodium pyruvate and 2.0 g/L sodium bicarbonate. All media were supplemented with 10% heat-inactivated FBS, 100 IU/mL penicillin and 100 µg/mL streptomycin. Cells were grown in a humidified incubator with 5% CO2 in air at 37 °C. For the antiproliferative assay, adherent cells were plated at a density of 5 × 10^4 cells/mL and HL-60 cells at 30 × 10^4 cells/mL. Cells were seeded in 96-well plates (100 µL/well). One day after seeding, cells were treated with medium containing the compounds at concentrations ranging from 0 up to 100 µM during 3 days. The compounds were dissolved in DMSO (1% final concentration) and complete medium. Untreated cells (medium containing 1% DMSO) were used as 100% viability controls. […] Each concentration was tested in sextuplicate and experiments were repeated 2 times. Cell viability was determined by means of the MTT reduction assay at the end of the incubation with the products. The results were transformed to percentage of controls and the IC50 values were graphically obtained from the dose-response curves.

Experiment [6] relates to MRC-5, AGS, SK-MES-1, J82 and HL-60 cell lines. The experiment is described as follows: Antiproliferative assay, panel of five human cell lines (summary in words). The experiment is classed as cell-based. The following applies: SK-MES-1, J82, HL-60, up to 100 µM. As for the experimental part: as §2, §3

Molecules are shown by their SMILES. Where only a bound is given, the exact number is not on record here.

`C=C1CCC2[C@](C)(CCC[C@]2(C)C(=O)OC)[C@H]1CC[C@@H](C)CCOCC[C@H](C)CC[C@H]1C(=C)CCC2[C@]1(C)CCC[C@]2(C)C(=O)OC` (stereo partly shown) [Compound 7]: the IC50 in experiment [1], in experiment [2], in experiment [3], in experiment [4] and in experiment [5] was over 100 µM throughout. In experiment [6], the “antiproliferative effect on the five cell lines (in words)” value (from here on “antiproliferative effect”) is reported as “no antiproliferative effect”.
Turning to `C=C1CCC2[C@](C)(CCC[C@]2(C)C(=O)O)[C@H]1CC[C@@H](C)CCOC(=O)CCc1cn(CC[C@H](C)CC[C@H]2C(=C)CCC3[C@]2(C)CCC[C@]3(C)C(=O)OC)nn1` (stereo partly shown) [Compound 19], the IC50 (usually the concentration needed to halve the response being measured) in experiment [1] was over 100 µM; in experiment [2], 42.4 ± 2.5 µM; in experiment [3] it was over 100 µM; in experiment [4] it was over 100 µM; in experiment [5] it was over 100 µM. Further, the “antiproliferative effect” value in experiment [6] is “no antiproliferative effect on any of the cell lines, except on HL-60”.
With `C=C1CCC2[C@](C)(CCC[C@]2(C)C(=O)OC)[C@H]1CC[C@@H](C)CCn1cc(CCC(=O)OCC[C@H](C)CC[C@H]2C(=C)CCC3[C@]2(C)CCC[C@]3(C)C(=O)OC)nn1` (stereo partly shown) [Compound 20], the IC50 in experiment [1], in experiment [2], in experiment [3], in experiment [4] and in experiment [5] was over 100 µM each time. Further, the “antiproliferative effect” value in experiment [6] is recorded as “no antiproliferative effect on any of the cell lines”.
For `C=C1CCC2[C@](C)(CCC[C@]2(C)C(=O)OC)[C@H]1CC[C@@H](C)CCn1cc(CCC(=O)O)nn1` (stereo partly shown) [Compound 6, 15-(4-(2-Carboxyethyl)-1H-1,2,3-triazol-1-yl)-imbricatolic acid methyl ester], the IC50 in experiment [1], in experiment [2], in experiment [3], in experiment [4] and in experiment [5] was over 100 µM throughout. In experiment [6], the “antiproliferative effect” value is listed as “no antiproliferative effect on any of the cell lines”.
Regarding `C=C1CCC2[C@](C)(CCC[C@]2(C)C(=O)OC)[C@H]1CC[C@@H](C)CCOC(=O)c1ccccc1C(=O)OCC[C@H](C)CC[C@H]1C(=C)CCC2[C@]1(C)CCC[C@]2(C)C(=O)OC` (stereo partly shown) [Compound 14], the IC50 in experiment [1] was over 100 µM; in experiment [2], 55.6 ± 3.9 µM; in experiment [3] it was over 100 µM; in experiment [4], 76.3 ± 5.8 µM; in experiment [5] it was 51.7 ± 2.8 µM.
Turning to `C=C1CCC2[C@](C)(CCC[C@]2(C)C(=O)O)[C@H]1CC[C@@H](C)CC(=O)OCc1cn(CC[C@H](C)CC[C@H]2C(=C)CCC3[C@]2(C)CCC[C@]3(C)C(=O)OC)nn1` (stereo partly shown) [Compound 15], the IC50 in experiment [1] was 84.7 ± 6.8 µM; in experiment [2] it was 44.1 ± 4.1 µM; in experiment [3], 56 ± 4.5 µM; in experiment [4], over 100 µM; in experiment [5], 39.4 ± 2.4 µM.
On to `C=C1CCC2[C@](C)(CCC[C@]2(C)C(=O)O)[C@H]1CC[C@@H](C)CC(=O)O` (stereo partly shown) [Compound 2, Labd-8(17)-en-15,19-dioic acid], for which the IC50 in experiment [1], in experiment [2], in experiment [3], in experiment [4] and in experiment [5] was over 100 µM throughout. The “antiproliferative effect” value in experiment [6] is “no antiproliferative effect on any of the cell lines”.
With `C=C1CCC2[C@](C)(CCC[C@]2(C)C(=O)OC)[C@H]1CC[C@@H](C)CCOCCCCCOCC[C@H](C)CC[C@H]1C(=C)CCC2[C@]1(C)CCC[C@]2(C)C(=O)OC` (stereo partly shown) [Compound 9], the IC50 in experiment [1] is over 100 µM; in experiment [2], 32.6 ± 2.3 µM; in experiment [3] it was 67.5 ± 6.9 µM; in experiment [4] it was 68.1 ± 3.4 µM; in experiment [5], 17.8 ± 1.3 µM.
Taken in the same sequence, the figures for `C=C1CCC2[C@](C)(CCC[C@]2(C)C(=O)OC)[C@H]1CC[C@@H](C)CCO` (stereo partly shown) [Compound 1, 15-Hydroxyimbricatolic acid methyl ester] were 63.7 ± 2.6 µM, 47.5 ± 3.9 µM, 59.7 ± 2.4 µM, 77.7 ± 4 µM and 38.5 ± 1.6 µM.
As to `C=C1CCC2[C@](C)(CCC[C@]2(C)C(=O)OC)[C@H]1CC[C@@H](C)CCn1cc(COC(=O)C[C@H](C)CC[C@H]2C(=C)CCC3[C@]2(C)CCC[C@]3(C)C(=O)OC)nn1` (stereo partly shown) [Compound 16], the IC50 in experiment [1], in experiment [2], in experiment [3], in experiment [4] and in experiment [5] was over 100 µM throughout.
As to `C=C1CCC2[C@](C)(CCC[C@]2(C)C(=O)OC)[C@H]1CC[C@@H](C)CCn1cc(CCOC(=O)C[C@H](C)CC[C@H]2C(=C)CCC3[C@]2(C)CCC[C@]3(C)C(=O)OC)nn1` (stereo partly shown) [Compound 18], the IC50 in experiment [1], in experiment [2], in experiment [3], in experiment [4] and in experiment [5] was over 100 µM throughout.
Consider `C=C1CCC2[C@](C)(CCC[C@]2(C)C(=O)OC)[C@H]1CC[C@@H](C)CCN=[N+]=[N-]` (stereo partly shown) [Compound 3, 15-Azidoimbricatolic acid methyl ester], for which the IC50 in experiment [1] was over 100 µM; in experiment [2] it was 22.3 ± 3.1 µM; in experiment [3], 67.6 ± 3.4 µM; in experiment [4], 91.8 ± 6.4 µM; in experiment [5] it was 73.8 ± 5.2 µM.
Taken in the same sequence, the figures for `C=C1CCC2[C@](C)(CCC[C@]2(C)C(=O)OC)[C@H]1CC[C@@H](C)CCOCCCCCCCCCOCC[C@H](C)CC[C@H]1C(=C)CCC2[C@]1(C)CCC[C@]2(C)C(=O)OC` (stereo partly shown) [Compound 10] were over 100 µM, over 100 µM, 67.9 ± 5.4 µM, over 100 µM and over 100 µM.
